A short description of data set [1]: Particle size analysis by laser diffraction. It counts as physicochemical. Conditions: dry module, 2 bar. Here is the method:
The particle sizes of the crystalline form of Comparative Examples 1 and 2 and Example 39 were analyzed using a laser diffraction-based particle size analyzer (Mastersizer 2000®, Malvern). After each sample was fed into a dry module (Scirocco 2000®, Malvern) at a pressure of 2 bar, the 50% volume particle diameter (d(0.5)) and 90% volume particle diameter (d(0.9)) of the particles were measured.

Data set [2] in a line: Solubility test in solvents, up to 200 vol (Table 1). The data set is classed as physicochemical. The note with it: organic solvent or mixture, thermodynamic from solid, about 5 mg compound, solvent named in the row (c1). The source says:
Then, the solvents were evaporated at room temperature for drying and XRPD patterns of the obtained dried materials were confirmed.

The nature of data set [3]: Pharmacokinetic properties of crystalline forms after oral administration. It counts as in vivo. The note with it: single oral dose, male SD rats; for AUC / Cmax / Tmax: about 5 mg in 10 mL 0.5% methylcellulose, 10 mL/Kg. On the procedure:
The pharmacokinetic properties of the different crystalline forms of the compound of Formula 1 were analyzed in vivo. About 5 mg of each of the crystalline form A of Preparative Example 5 and the crystalline form G of Preparative Example 6 was suspended in 10 mL of a 0.5% methylcellulose solution to produce a formulation for oral use. Then, 6 week old male SD rats (Orient Bio. Inc., Korea) were divided into two groups. About 3 mL (10 mL/Kg) of the oral formulation was once administered orally to each rat and blood samples were drawn from the rat at predetermined intervals of 0.167, 0.5, 1.0, 2.0, 4.0, 6.0, 8.0, and 24.0 hr. The blood samples were used to analyze the pharmacokinetic parameters of the crystalline form.
The pharmacokinetic parameters of the crystalline forms were analyzed using Waters Quattro premier XE 2795 Alliance HT (Waters) under the following conditions: flow rate=0.25 ml/min, column temperature=40° C., injection volume=7 μL, and mobile phase=A: 1 mM ammonium acetate & 0.1% acetic acid (35%), B: ACN (65%). Linearity was established with 8 different standard concentrations.
The oral formulations including the compound of Preparative Example 5 and the compound of Preparative Example 6, respectively, were administered to the different rats.

Data set [4] can be described thus: Dissolution rates of crystalline forms in hard capsules. The note with it: 900 ml pH 1.2 solution, 50 and 100 rpm, 37±0.5° C., 2 hr. It counts as physicochemical. Here is the method:
In this example, the dissolution rates of the crystalline forms of the compound of Formula 1 were examined. Specifically, each of the crystalline form A of Preparative Example 5 and the crystalline form G of Preparative Example 6 was filled in hard capsules and was then eluted in 900 ml of a pH 1.2 solution at different revolution numbers of 50 and 100 rpm and a temperature of 37±0.5° C. for 2 hr. The eluted particles were analyzed under the following HPLC conditions:
Column: Hypurity C18, 250×4.6 mm, 5 μm or its equivalent column
Detector: UV absorption spectrometer (measured at 325 nm)
Column temperature: 30° C.
Mobile phase: A—acetonitrile, B—water, A:B=60:40, v/v %

The nature of data set [5]: Related substance creation under stress conditions (HPLC). Conditions: stress conditions 60±2° C. and 85±5% (RH), sealed glass vial; for Total related substance: after 4 week storage. It counts as physicochemical. Here is the method:
Each raw material was sealed in a glass vial and sampled at different elapsed time. The samples were evaluated by HPLC analysis. […] Based on the above results, the crystalline forms A and G were selected and used for the study for manufacturing an oral pharmacological composition.

A short description of data set [6]: Light stability of crystalline form A in capsules. It counts as physicochemical. Conditions: light stress storage conditions. Here is the method:
The crystalline form A was filled in a hard capsule (2 mg per capsule) and stored under the light stress conditions shown in Table 11. Thereafter, the appearance of the crystalline form A, the retention time of the major peak, the amounts (%) of related substances, and the compound content were analyzed.

Data set [7] in a line: Storage stability of crystalline forms (appearance, XRD, related substances). The data set is classed as physicochemical. Conditions: 25° C./97% RH and 40° C./75% RH, 7 days; for State of crystalline form (XRD): hard capsules; for Appearance and crystalline structures / Creation of related substances: uncapped glass vial. On the procedure: Additionally, the crystalline forms of the compound of Formula 1 were evaluated for storage stability. The crystalline form A of Preparative […] conditions (25° C./97% RH) and accelerated storage conditions (40° C./75% RH) for 7 days. X-ray diffraction analysis was performed in accordance with the same method as described in Preparative Examples 5 and 6.

Data set [8] in a line: Solubility test in 28 solvents at r.t. and 50° C. (Table 2).
Experimental: When dissolution was incomplete during the experiment, the solution was maturated by repeatedly heating to 50° C. and then cooling to room temperature 8 times for 24 hr in an incubation chamber. After maturation, the solvent was dried at room temperature.
During the experiment, the completely dissolved solution was stored under a cold condition (4° C.) for 24 hr to allow crystal formation, recovered and dried at room temperature. Then XRPD analysis was performed.

Where two headings read alike, the source gives them in different places. Bounds are passed on as bounds.

Regarding `CC1(C)OC(c2ccc(S(N)(=O)=O)cc2)=C(c2cccc(F)c2)C1=O` [Comparative Example 1], in data set [1], the “Particle size d(0.1)” value turned out to be 40.55 μm; the “Particle size d(0.5), 50% volume particle diameter” value came to 136.49 μm; the “Particle size d(0.9), 90% volume particle diameter” value came to 527.04 μm.
Regarding `CC1(C)OC(c2ccc(S(N)(=O)=O)cc2)=C(c2cccc(F)c2)C1=O` [Comparative Example 2], in data set [1], the “Particle size d(0.1)” value was 5.15 μm; the “Particle size d(0.5), 50% volume particle diameter” value was 32.17 μm; the “Particle size d(0.9), 90% volume particle diameter” value amounted to 83.54 μm.
For `CC1(C)OC(c2ccc(S(N)(=O)=O)cc2)=C(c2cccc(F)c2)C1=O` [Example 4], the solubility in data set [2] (read-out: Solubility at 100 vol (500 uL)) was more than 10000 µg/mL.
As for `CC1(C)OC(c2ccc(S(N)(=O)=O)cc2)=C(c2cccc(F)c2)C1=O` [Example 5], the solubility in data set [2] (read-out: Solubility at 200 vol (1000 uL)) was less than 5000 µg/mL.
As to `CC1(C)OC(c2ccc(S(N)(=O)=O)cc2)=C(c2cccc(F)c2)C1=O` [Preparative Example 5], in data set [3] (male, SD, rat, blood, po, 5 mg, read-out: AUC), the AUC is 2320 ng·h/mL. The Cmax in data set [3] (male, SD, rat, blood, po, 5 mg, read-out: Cmax) was 751 ng/mL. The Tmax in data set [3] (male, SD, rat, blood, po, 5 mg, read-out: Tmax) worked out at 30 min. For the same compound, in data set [3], the “In vivo dissolution rates (blood levels over time)” value is given as “higher in vivo dissolution rates than the crystalline form G of Preparative Example 6”. The Dissolution rate result in data set [4] is listed as “higher dissolution rates than the crystalline form G”. Moreover, the Total related substance entry in data set [5] is “about 0.1%”. Besides, the “Time until related substances exceeded the criteria” value in data set [6] is not above 7 days. For the same compound, in data set [7], the “State of crystalline form (XRD)” value was “maintained stable”; the “Appearance and crystalline structures” value was “remained unchanged”; the “Creation of related substances” value is on record as “rarely observed”.
Turning to `CC1(C)OC(c2ccc(S(N)(=O)=O)cc2)=C(c2cccc(F)c2)C1=O` [Preparative Example 6], in data set [3], the AUC was 2416.835 ng·h/mL, the Cmax was found to be 513.614 ng/mL and the Tmax was 60 min. Also, the Total related substance entry in data set [5] is “about 0.1%”. In addition, in data set [7], the “State of crystalline form (XRD)” value is reported as “maintained stable”; the “Appearance and crystalline structures” value is recorded as “remained unchanged”; the “Creation of related substances” value was “rarely observed”.
`CC1(C)OC(c2ccc(S(N)(=O)=O)cc2)=C(c2cccc(F)c2)C1=O` [compound of Formula 1]: in data set [8] (IPA, Toluene, TBME, Diethyl ether, Heptane, water), the “Dissolution in solvent volume up to 100 times, heated up to 50° C.” value was “not dissolved”. Moreover, the “Dissolution in solvent volume 10 times the raw material” value in data set [8] (acetone, 2-butanone, THF, DMSO, Methylpyrrolidine, Dioxane, acetonitrile aqueous solution, NMP, 1-methoxy-IPA) was “dissolved”. The “Dissolution in solvent volume 20 times to 40 times the raw material” value in data set [8] (ethyl acetate, acetonitrile, MIBK, DCM, Nitromethane) is “dissolved”.
`CC1(C)OC(c2ccc(S(N)(=O)=O)cc2)=C(c2cccc(F)c2)C1=O` [crystalline form B]: in data set [5], the “Level of total related substance over time” value is recorded as “rapidly increased”.

(Values after patent US10413520B2, “Oral pharmacological composition including 5-{4-(amino sulfonyl)phenyl}-2,2-dimethyl-4-(3-fluorophenyl)-3(2H)-furanone having crystalline structure with excellent stability” (CRYSTALGENOMICS, INC., priority 2014, dated 2019).)
